Assay [1] has as its target T1, human 11β-HSD1 (Homo sapiens, UniProt P28845).
T1 construct: 100 ug/ml human/mouse liver microsomes; from tissue; host or cells: human liver microsomes
Kind of assay: Enzyme activity analysis on human 11β-HSD1 (HTRF cortisol, liver microsomes). The class given is biochemical. The note with it: first value of cell. An outline of the steps:
(§1)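 Cortisol generated by mouse or human liver microsome 11β-HSD1 during 2 h at 37° C., measured by HTRF competition (cryptate anti-cortisol antibody, d2-cortisol, 2 h room temperature) against a cortisol standard curve. IC50 from percent inhibition versus no-compound control.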

Assay [2] has as its target T2, mouse 11β-HSD1 (Mus musculus, UniProt P50172).
T2 construct: 100 ug/ml human/mouse liver microsomes; from tissue; host or cells: mouse liver microsomes
Kind of assay: Enzyme activity analysis on mouse 11β-HSD1 (HTRF cortisol, liver microsomes). The class given is biochemical. The note with it: second value of cell. An outline of the steps: as §1
On the technique in general: TR-FRET usually uses a lanthanide donor and a delayed reading to cut background.

Assay [3] has as its target T3, human 11β-HSD2 (Homo sapiens, UniProt P80365).
T3 construct: host or cells: CHO cells
T3 sequence (P80365 1-405): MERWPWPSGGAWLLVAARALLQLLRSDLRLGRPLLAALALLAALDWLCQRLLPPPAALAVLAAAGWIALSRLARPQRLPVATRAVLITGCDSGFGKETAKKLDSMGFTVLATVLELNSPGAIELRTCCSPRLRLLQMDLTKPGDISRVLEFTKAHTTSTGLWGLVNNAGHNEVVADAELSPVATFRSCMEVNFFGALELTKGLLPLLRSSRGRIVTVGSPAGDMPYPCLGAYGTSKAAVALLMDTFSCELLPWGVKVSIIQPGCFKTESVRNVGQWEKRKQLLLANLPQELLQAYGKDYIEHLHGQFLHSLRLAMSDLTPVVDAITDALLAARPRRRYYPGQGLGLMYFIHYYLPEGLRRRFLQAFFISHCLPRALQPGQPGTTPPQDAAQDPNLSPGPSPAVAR
The experiment in a line: 11b-HSD2 inhibition test in transfected CHO cells. The class given is cell-based. The note with it: at a concentration of 10 uM; CHO cells expressing human 11β-HSD2; read-out: 11b-HSD2 inhibitory effect. The protocol: CHO cells were plated on a 96 well plate with RPMI (Wellgene) medium (phenol red free) containing 100 μl of 10% FBS, 100 ug/ml of penicillin and 100 ug/ml of streptomycin (2×10^4 cells/well). CHO cells were transfected with plasmid (Origene, SC122552) (pCMV6-XL5 vector) expressing human 11β-HSD2 by using FuGENE6 reagent (Promega, E2311). 24 hours after transfection, the transfected cells were added with 50 nM of cortisol (Sigma) in the presence or absence of the compound at various concentrations. On the following day (24 hours later), the supernatant liquid was obtained, and through HTRF (Cisbio, 62CO2PEB) analysis, a competitive amount of cortisol was measured.

Assay [4] addresses T4, glucocorticoid receptor (Homo sapiens, UniProt P04150).
T4 construct: 4× GR-LBD up to 4 nM, and 4× Tb anti-GST Antibody up to 8 nM; purchased Invitrogen PV6040
T4 sequence (P04150 524-758 limits assumed): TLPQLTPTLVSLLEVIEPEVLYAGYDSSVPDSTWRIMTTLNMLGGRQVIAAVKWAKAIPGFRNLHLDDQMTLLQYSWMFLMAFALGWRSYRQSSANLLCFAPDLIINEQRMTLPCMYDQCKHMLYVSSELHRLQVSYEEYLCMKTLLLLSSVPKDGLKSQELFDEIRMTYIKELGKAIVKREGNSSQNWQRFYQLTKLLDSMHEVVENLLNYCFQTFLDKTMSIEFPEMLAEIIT
The experiment in a line: Competitive binding of glucocorticoid receptor (LanthaScreen TR-FRET). The note with it: final concentration 10 uM. The protocol:
In order to confirm the selective inhibitory ability of 11β-HSD1 inhibitor, competitive binding between 11β-HSD1 inhibitor and glucocorticoid ligand was tested by using LanthaScreen TR-FRET Glucocorticoid Receptor Competitive Binding Assay (Invitrogen, PV6040). The test material was dissolved in DMSO (Sigma, 276855) up to a 100× concentration of its final concentration (10 uM), and then Complete Nuclear Receptor Buffer F (1× stabilizing peptide, 5 mM DTT, Nuclear Receptor Buffer F) was used to dilute the test material up to a concentration of 2×, 4× Fluormone™ GS1 Green up to 20 nM, 4× GR-LBD up to 4 nM, and 4× Tb anti-GST Antibody up to 8 nM.
In order to obtain 60 μl of a final product through a reaction, on a 96-well plate, 2× test material 30 μl, 4× Fluormone™ GS1 Green 15 μl, and 4× GR-LBD/Tb anti-GST Antibody 15 μl were mixed, and reacted for 1 hour. In a positive control group, instead of the test material, Dexamethasone (Sigma, D1756), known as a ligand for glucocorticoid receptor, was used, and in a maximum active control group, DMSO was used, instead of the test material. In a negative control group, instead of the test material, DMSO was used, instead of Fluormone™ GS1 Green, Complete Nuclear Receptor Buffer F was used. On a 384-well white plate, 20 μl each was plated. By using Time-Resolved program in Flexstation3, a fluorescence value was read after excitation ([…]), emission (515 nM/486 nM), Delay time (100 μs), and Integration time (1500 μs) were programmed. By using the obtained value, a value of 515 nM/486 nM was calculated, from which the value in the negative control group was subtracted. The degree of binding of the test material to glucocorticoid receptor of was calculated by the active value of the test material with respect to the active value (100%) in the maximum active control group.

Molecules are shown by their SMILES.

T2 sequence (P50172 whole entry): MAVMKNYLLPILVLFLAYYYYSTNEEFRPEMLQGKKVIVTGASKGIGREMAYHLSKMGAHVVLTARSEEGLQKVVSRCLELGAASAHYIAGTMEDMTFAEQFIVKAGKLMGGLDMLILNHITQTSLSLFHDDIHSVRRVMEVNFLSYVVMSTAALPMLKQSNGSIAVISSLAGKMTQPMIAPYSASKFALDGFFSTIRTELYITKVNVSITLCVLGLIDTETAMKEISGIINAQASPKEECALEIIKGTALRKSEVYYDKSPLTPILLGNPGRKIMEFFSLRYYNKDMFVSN
T1 sequence (P28845 whole entry): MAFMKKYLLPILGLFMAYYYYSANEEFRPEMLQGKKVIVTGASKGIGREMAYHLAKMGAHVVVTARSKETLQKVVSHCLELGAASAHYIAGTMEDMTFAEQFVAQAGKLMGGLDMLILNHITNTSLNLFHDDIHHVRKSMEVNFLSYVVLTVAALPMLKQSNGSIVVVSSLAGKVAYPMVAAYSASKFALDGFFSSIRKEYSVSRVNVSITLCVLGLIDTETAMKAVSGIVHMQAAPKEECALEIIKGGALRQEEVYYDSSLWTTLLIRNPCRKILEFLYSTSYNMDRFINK

As usually defined, the IC50 is the point on the concentration scale where inhibition reaches its midpoint. The low end stands for greater potency in that assay, the high end for weaker potency in that assay. Turning to `CC(C)(NS(=O)(=O)c1c(Cl)cccc1Cl)C(=O)NC1C2CC3CC1CC(C(N)=O)(C3)C2` (stereo not drawn) [compound 121], the figures for the IC50 in assay [1] and in assay [2] were 0.009 µM and 0.004 µM, respectively. Also, the inhibition at 10 µM in assay [3] is not above 40%.
In the case of `Cc1ccc(S(=O)(=O)NC(C)(C)C(=O)NC2C3CC4CC2CC(C(N)=O)(C4)C3)cc1F` (stereo not drawn) [compound 92, N-4-(2-(3-fluoro-4-methylphenylsulfonamido)-2-methylpropanamido)adamantane-1-carboxyamide], the IC50 is 0.032 µM in assay [1] and 0.077 µM in assay [2]. In addition, in assay [4], the “binding to glucocorticoid receptor” value is given as “did not bind to glucocorticoid receptor”. Also, in assay [3], the inhibition at 10 µM was not above 40%.
Consider `CC(C)(NS(=O)(=O)c1ccccc1[N+](=O)[O-])C(=O)NC1C2CC3CC1CC(C(N)=O)(C3)C2` (stereo not drawn) [compound 106, N-4-(2-(2-nitrophenylsulfonamido)-2-methylpropanamido)adamantane-1-carboxyamide], for which the IC50 in assay [1] is 0.041 µM; in assay [2], 0.04 µM. Moreover, the “binding to glucocorticoid receptor” value in assay [4] is reported as “did not bind to glucocorticoid receptor”. In assay [3], the inhibition at 10 µM was not above 40%.
As for `CC(C)(NS(=O)(=O)c1cccc2cccnc12)C(=O)NC1C2CC3CC1CC(C(N)=O)(C3)C2` (stereo not drawn) [compound 105, N-4-(2-(quinoline-8-sulfonamido)-2-methylpropanamido)adamantane-1-carboxyamide], the IC50 in assay [1] was 0.023 µM; in assay [2] it was 0.006 µM. Besides, the inhibition at 10 µM in assay [3] was not above 40%.
On the same counts, the results for `NC(=O)C12CC3CC(C1)C(NC(=O)C1(NS(=O)(=O)c4cccc5cccnc45)CCC1)C(C3)C2` (stereo not drawn) [compound 146, N-4-(1-(quinoline-8-sulfonamido)cyclobutanecarboxyamido)adamantane-1-carboxyamide] are 0.029 µM, 0.02 µM and not above 40%.
Regarding `CC(C)(NS(=O)(=O)c1ccccc1C(F)(F)F)C(=O)NC1C2CC3CC1CC(C(N)=O)(C3)C2` (stereo not drawn) [compound 108, N-4-(2-(2-trifluoromethylphenylsulfonamido)-2-methylpropanamido)adamantane-1-carboxyamide], the results for the IC50 in assay [1] and in assay [2] were 0.011 µM and 0.029 µM, respectively. In assay [4], the “binding to glucocorticoid receptor” value is “did not bind to glucocorticoid receptor”. For the same molecule, in assay [3], the inhibition at 10 µM was not above 40%.
